In article PMC6946680, “Modulation of brain cation-Cl^− cotransport via the SPAK kinase inhibitor ZT-1a” (Nature Communications, 2020):
Values joined by “and” are separate entries in the source; they are usually repeats but may differ in a detail not shown here. Identical values can stand only once.

What was measured:
SPAK–WNK1 interaction = system: T1, SPAK–WNK1 interaction; assay: SPAK antibody pull-down / co-immunoprecipitation of WNK1 from HEK-293 cell lysates; type: binding, human; settings: for WNK1 co-immunoprecipitated with SPAK (band quantification): Fig S6
T1 construct: endogenous in cells; host or cells: HEK-293
Experimental: Supplemental Fig. 6 Evidence that SPAK associates with WNK1, and interaction is disrupted by ZT-1a and its analogs. Non-transfected HEK293 cell lysates were incubated with the RFQV peptide […]
ZT-1a for 30 min on ice and subjected to SPAK antibody immunoprecipitation. Immunoprecipitates were subjected to immunoblot probed with antibody to total WNK1 and antibody to total SPAK. Left panels: representative immunoblots. Right panels, summarized data quantitated by densitometry (n=3, means ± SEM; **,

tSPAK tOSR1 = assay: Immunoblot of total SPAK/OSR1 in ischemic mouse brain membrane and cytosol fractions; type: in vivo; settings: Membrane, single samples
Description: Supplement 41467_2019_13851_MOESM4_ESM.zip/Source Data.xlsx, sheet "Fig S11b and c" | column: tSPAK tOSR1/Na K pump (fold veh-CL)

ASK1 = assay: Kinase profiling panel; type: biochemical
Experimental: (§1) Supplementary Table 2. ZT-1a kinase profiling data6.
(§2) ZT-1a was tested at 10 and 1 µM against a panel of 140 recombinant kinases in an enzymatic
(§3) activity-based assay performed by the International Centre for Kinase Profiling in the MRC
(§4) Protein Phosphorylation and Ubiquitylation Unit. Values represent % residual kinase activity

YES1 = assay: Kinase profiling panel; type: biochemical
Experimental: as §1, §2, §3, §4

MAPKAP-K2 = assay: Kinase profiling panel; type: biochemical
Experimental: as §1, §2, §3, §4

DYRK2 = assay: Kinase profiling panel; type: biochemical
Experimental: as §1, §2, §3, §4

EIF2AK3 = assay: Kinase profiling panel; type: biochemical
Experimental: as §1, §2, §3, §4

PAK5 = assay: Kinase profiling panel; type: biochemical
Experimental: as §1, §2, §3, §4

PKCa = assay: Kinase profiling panel; type: biochemical
Experimental: as §1, §2, §3, §4

[1] = system: mouse model of ischemic stroke (tMCAO); assay: Neurological deficit score after tMCAO; type: in vivo; settings: for Neurological score (score): Fig 7c, individual mice #1-#7; for neurological deficit score: ZT-1a 5.0 mg/kg
human fibroblast cells = assay: Cell volume measurement (calcein-AM) under hyperosmotic stress, human fibroblasts; settings: hypertonic 515 mOsm; BMT or ZT-1a
[2] = ZT-1a content in plasma and brain of sham and tMCAO mice (LC-MS/MS); type: in vivo, mouse; settings: for plasma ZT-1a concentration: Fig 6e; for plasma ZT-1a concentration / Brain tissue ZT-1a concentration: individual animals; for Brain tissue ZT-1a concentration: Fig 6f
SPAK pSer373 = assay: Choroid plexus SPAK/OSR1 immunoblot in rat post-hemorrhagic hydrocephalus (IVH) model; type: in vivo
KCC3 = assay: 86Rb+ uptake assay for KCC3 activity in HEK-293 cells; type: cell-based, human; set-up: key to 86Rb+ uptake: 86Rb+ uptake CPM normalized per mg protein (10-min uptake); settings: for 86Rb+ uptake: replicates
Experimental: ^86Rb^+ flux assays have been utilized extensively as a reliable measurement of cation chloride cotransporter activity[51]–[54].
Thirty-six hours post transfection, cells were exposed for 30 min to either control isotonic conditions or hypotonic low [Cl^−] conditions (to activate the SPAK/OSR1 pathway), and then treated for an additional 30 min in the same conditions with the indicated ZT-1a concentrations in the presence of 1 mM ouabain and 0.1 mM bumetanide. Ten-minute ^86Rb^+ uptake values were quantified by scintillation counting, normalized per mg protein for each condition, and plotted for both isotonic and hypotonic conditions. ***p < 0.001; **p < 0.01; *p < 0.05; ns—nonsignificant [by one-way ANOVA with post hoc testing (n = 6, error bars represent the mean ± SEM)]. b ^86Rb^+ uptake assays in the presence of ZT-1a measure transport activity of NKCC1. […] Thirty-six hours post transfection, cells were exposed for 30 min to either control isotonic conditions or hypotonic low [Cl^−] conditions (to activate the SPAK/OSR1 pathway), and then treated in the same conditions for an additional 30 min with 10 µM ZT-1a or 0.1 mM bumetanide (Bum) in the presence of 1 mM ouabain (Na^+/K^+-ATPase inhibitor). ^86Rb^+ uptake was allowed to proceed for 10 min and was then quantified by scintillation counting. ^86Rb^+ uptake CPMs were normalized per mg protein and plotted for both isotonic and hypotonic conditions. […] Thirty-six hours post transfection, cells were exposed for 30 min to either control isotonic conditions or hypotonic low [Cl^−] conditions (to activate the SPAK/OSR1 pathway), and then treated for an additional 30 min in the same conditions with the indicated ZT-1a concentrations in the presence of 1 mM ouabain. Ten-minute ^86Rb^+ uptake values were quantified by scintillation counting, normalized per mg protein for each condition, and plotted for both isotonic and hypotonic conditions. ***p < 0.001; **p < 0.01; *p < 0.05; ns—nonsignificant [by one-way ANOVA with post hoc testing (n = 6, error bars represent the mean ± SEM)].
This stimulating medium was then removed and replaced with isotonic medium containing inhibitors plus 2 µCi/ml ^86Rb^+. After incubation for 10 min at 37 °C, cells were rapidly washed three times with the respective ice-cold nonradioactive medium. Washed cells were lysed in 300 µl of ice-cold lysis buffer and ^86Rb^+ uptake was quantitated by liquid scintillation counting (PerkinElmer).

[3] = system: mouse model of ischemic stroke (tMCAO); assay: Ex vivo T2-weighted MRI and DTI of brains 7 days post tMCAO; type: in vivo
[4] = rat CPe 48 h post IVH + 1a, replicates
[5] = 7 days post stroke, ZT-1a 5.0 mg/kg

Cc1cc(C(C#N)c2ccc(Cl)cc2)c(Cl)cc1NC(=O)c1cc(Cl)ccc1O (stereo not drawn) [ZT-1a, 5-chloro-N-(5-chloro-4-((4-chlorophenyl)(cyano)methyl)-2-methylphenyl)-2-hydroxybenzamide]
WNK1 co-immunoprecipitated with SPAK (band quantification) (SPAK–WNK1 interaction; 10 uM): 0.445 and 0.402 and 0.4282 and 0.39
WNK1 co-immunoprecipitated with SPAK (band quantification) (SPAK–WNK1 interaction; 30 uM): 0.176 and 0.186 and 0.196
WNK1 co-immunoprecipitated with SPAK (band quantification) (SPAK–WNK1 interaction; 100 uM): 0.121 and 0.086 and 0.0911 and 0.105
WNK1 co-immunoprecipitated with SPAK (band quantification) (SPAK–WNK1 interaction; 300 uM): 0.066 and 0.072 and 0.068 and 0.058
WNK1 co-immunoprecipitated with SPAK (band quantification) (SPAK–WNK1 interaction; 1000 uM): 0.048 and 0.027 and 0.0332 and 0.031
co-immunoprecipitation of WNK1 with SPAK (SPAK–WNK1 interaction; HEK-293 cell lysates, absence or presence of competitor peptide): abolished by ZT-1a more potently than by STOCK1S-50699 or by Closantel
tSPAK tOSR1/Na K pump (fold veh-CL) (tSPAK tOSR1): 0.93 fold veh-CL and 1.11 fold veh-CL and 1.70 fold veh-CL and 1.17 fold veh-CL and 1.58 fold veh-CL
% residual kinase activity (ASK1; 1 µM): 101±3%
% residual kinase activity (ASK1; 10 µM): 100±11%
% residual kinase activity (YES1; 1 µM): 109±3%
% residual kinase activity (YES1; 10 µM): 98±7%
% residual kinase activity (MAPKAP-K2; 1 µM): 91±13%
% residual kinase activity (MAPKAP-K2; 10 µM): 13±7%
% residual kinase activity (DYRK2; 1 µM): 111±15%
% residual kinase activity (DYRK2; 10 µM): 97±10%
% residual kinase activity (EIF2AK3; 1 µM): 114±2%
% residual kinase activity (EIF2AK3; 10 µM): 100±3%
% residual kinase activity (PAK5; 1 µM): 93±26%
% residual kinase activity (PAK5; 10 µM): 93±4%
% residual kinase activity (PKCa; 1 µM): 97±4%
% residual kinase activity (PKCa; 10 µM): 83±2%
Neurological score (score) ([1]; Day 0): 3 score
Neurological score (score) ([1]; Day 1): 3 score and 2 score (5×) and 1 score
Neurological score (score) ([1]; Day 3): 2 score (6×) and 1 score
Neurological score (score) ([1]; Day 5): 1 score (3×) and 2 score (4×)
Neurological score (score) ([1]; Day 7): 1 score (4×) and 2 score (3×)
neurological deficit score ([1]; day 1 post tMCAO): 2.0 ± 0.2
neurological deficit score ([1]; day 7 post tMCAO): 1.4 ± 0.2
regulatory volume increase (RVI) in human fibroblast cells (human fibroblast cells): absence of RVI
ZT-1a concentration in CL and IL hemispheres of ischemic brains relative to sham brains ([2]; 2 h after 5 mg/kg i.p.): ~ 1.8 fold
plasma ZT-1a levels in ischemic versus non-ischemic sham mice ([2]; 2 h after 5 mg/kg i.p.): indistinguishable
plasma ZT-1a concentration ([2]; Sham mice): 329.00 ng/mL and 282.00 ng/mL and 324.00 ng/mL and 520.00 ng/mL and 751.00 ng/mL and 743.08 ng/mL and 457.88 ng/mL and 359.25 ng/mL and 143.14 ng/mL and 588.55 ng/mL and 379.00 ng/mL
plasma ZT-1a concentration ([2]; tMCAO mice): 1494.00 ng/mL and 655.00 ng/mL and 82.00 ng/mL and 678.79 ng/mL and 587.05 ng/mL and 302.56 ng/mL and 827.38 ng/mL and 531.10 ng/mL and 662.00 ng/mL
Brain tissue ZT-1a concentration ([2]; sham, CL hemisphere): 221.00 ng/gm tissue and 107.00 ng/gm tissue and 97.00 ng/gm tissue and 50.00 ng/gm tissue and 133.00 ng/gm tissue and 120.00 ng/gm tissue and 67.00 ng/gm tissue and 61.00 ng/gm tissue and 77.00 ng/gm tissue and 131.00 ng/gm tissue
Brain tissue ZT-1a concentration ([2]; sham, IL hemisphere): 174.00 ng/gm tissue and 130.00 ng/gm tissue and 100.00 ng/gm tissue and 155.00 ng/gm tissue and 76.00 ng/gm tissue and 115.00 ng/gm tissue and 89.00 ng/gm tissue and 78.00 ng/gm tissue and 59.00 ng/gm tissue and 139.00 ng/gm tissue
Brain tissue ZT-1a concentration ([2]; tMCAO, CL hemisphere): 161.00 ng/gm tissue and 118.00 ng/gm tissue and 139.00 ng/gm tissue and 285.00 ng/gm tissue and 269.00 ng/gm tissue and 132.00 ng/gm tissue and 326.00 ng/gm tissue and 170.00 ng/gm tissue and 163.00 ng/gm tissue and 133.00 ng/gm tissue and 245.00 ng/gm tissue
Brain tissue ZT-1a concentration ([2]; tMCAO, IL hemisphere): 217.00 ng/gm tissue and 131.00 ng/gm tissue and 171.00 ng/gm tissue and 369.00 ng/gm tissue and 215.00 ng/gm tissue and 238.00 ng/gm tissue and 154.00 ng/gm tissue and 150.00 ng/gm tissue and 199.00 ng/gm tissue
penetration across the healthy BBB ([2]; normal naive mice): minimal
SPAK / Actin (SPAK pSer373; [4]): 2.39 and 2.21 and 2.2 and 2.51 and 2.16 and 2.37
SPAK pSer373 / Actin (SPAK pSer373; [4]): 0.69 and 0.85 and 1.13 and 0.73 and 0.89 and 1.07
reduction of IVH-induced expression of pSPAK in CPe (SPAK pSer373; rat, ICV ZT-1a, 48 h post IVH, n = 3): 55 ± 3.6%
activation of WT KCC3 (KCC) activity (KCC3; 86Rb+ flux, 10 µM ZT-1a, HEK-293): > 10.6 fold and > 10 fold
86Rb+ uptake (KCC3; Fig 3a right, KCC3 wt, ZT-1a 1 uM, Hypotonic low Cl-): 1990.9 and 1707.8 and 2071.9 and 2501.3 and 2188.7 and 2073.1
86Rb+ uptake (KCC3; Fig 3a right, KCC3 wt, ZT-1a 1 uM, Isotonic control): 3241.3 and 3419.1 and 2873.4 and 3612.8 and 2913.5 and 2519.3
86Rb+ uptake (KCC3; Fig 3a right, KCC3 wt, ZT-1a 3 uM, Hypotonic low Cl-): 4012.2 and 3271.9 and 4514.8 and 3888.6 and 3729.3 and 3910.5
86Rb+ uptake (KCC3; Fig 3a right, KCC3 wt, ZT-1a 3 uM, Isotonic control): 6755.1 and 6519.9 and 7018.4 and 6691.3 and 7512.7 and 6011.7
86Rb+ uptake (KCC3; Fig 3a right, KCC3 wt, ZT-1a 10 uM, Hypotonic low Cl-): 11981.4 and 10921.3 and 12650.2 and 11037.8 and 12144.8 and 9615.1
86Rb+ uptake (KCC3; Fig 3a right, KCC3 wt, ZT-1a 10 uM, Isotonic control): 17537.1 and 16129.4 and 18002.7 and 19588.5 and 17991.3 and 15002.2
86Rb+ uptake (KCC3; Fig 3a, KCC3 wt + 1a (10 µM), Hypotonic low Cl-): 12251.1 and 13980.5 and 10874.7 and 11830.4 and 14081.1 and 11229.7
86Rb+ uptake (KCC3; Fig 3a, KCC3 wt + 1a (10 µM), Isotonic control): 17623.6 and 19014.4 and 18719.8 and 19961.7 and 18001.8 and 17951.6
EC tract FA values in the IL hemisphere [3, 5]: undiminished
reduction of brain atrophy (% hemisphere shrinkage) [3, 5]: ~ 41%
reduction of stroke-induced lesion volume (T2-weighted MRI) [3, 5]: ~ 40%
EC FA value ([3]; Fig 7d, CL hemisphere, individual brains): 0.3452 and 0.2737 and 0.3976 and 0.3529 and 0.3132 and 0.3022 and 0.3144
EC FA value ([3]; Fig 7d, IL hemisphere, individual brains): 0.3284 and 0.2019 and 0.3515 and 0.3727 and 0.2854 and 0.2283 and 0.2974
% Shrinkage ([3]; Fig 7d, individual brains): 4.31% and 1.96% and 1.98% and 5.61% and 5.20% and 3.63% and 2.52%
Lesion volume (mm3) ([3]; Fig 7d, individual brains): 33.98 mm3 and 34.15 mm3 and 17.99 mm3 and 33.62 mm3 and 29.17 mm3 and 52.2 mm3 and 18.61 mm3
